# Measurements: paper PMC11788964, “Clinical Pharmacology and Approach to Dose Selection of Emestedastat, a Novel Tissue Cortisol Synthesis Inhibitor for the Treatment of Central Nervous System Disease” (Clinical Pharmacology in Drug Development, 2025)
# Legend:
# [1] = tested on: mice with age‐associated cognitive impairment; murine Tg2576 model of AD; conditions: aged mice and murine Tg2576 model of AD; cited from earlier work
# brain 11β‐HSD1 = conditions: aged mice and murine Tg2576 model of AD; cited from earlier work
# AD population = tested on: AD population; set-up: method as in PMID 24418055; conditions: 12‐week Phase 2 trial in AD; cited from earlier work
# 11β‐HSD1 = tested on: 11β‐HSD1; set-up: method as in PMID 38250767; conditions: 5 mg; cited from earlier work
# [2] = Safety and tolerability in clinical trials; type: in vivo, human
# Text: All trials were approved by a local ethics committee/institutional review board, and all participants gave written informed consent. Endocrinology data and a population PK (PPK) analysis are available from the following trials: • · A single‐ascending‐dose (SAD) trial in healthy volunteers (RD 656/25368)[25] • · A multiple‐ascending‐dose (MAD) trial in healthy volunteers, including a small subtrial measuring CSF concentrations (ACW0001)[25] • · A positron emission tomography (PET) trial in cognitively normal, older volunteers and patients with AD (ACW0004)[26] • · Two trials in cognitively normal, older volunteers examining safety and effects on cognition (Trials ACW0003, NCT03830762 and ACW0005; and NCT04983368) • · A PPK analysis from the healthy volunteer and patient trials • · HPA axis endocrinology data from the volunteer and patient trials • · A trial of efficacy and safety in patients with AD (ACW0002; NCT02727699)[27]
# Initially, the SAD and MAD trials studied doses up to 35 mg twice daily and assessed PK and HPA PD.
# [3] = Population pharmacokinetic (PPK) analysis of MAD, XanADu and XanaHES trials; type: in vivo, human
# Experimental: PPK analysis was performed on data from 3 trials: the MAD trial in volunteers; the XanADu trial in patients with AD; and XanaHES in older, cognitively normal participants. In total, 138 participants (18 healthy volunteers, 90 patients with AD, and 30 healthy older participants) contributed a total of 1087 evaluable plasma concentration observations.
# The analyses were performed using NONMEM Version 7.3.0 (ICON plc). PK parameter relationships were sought with the covariates body weight, age, sex, and healthy versus AD. The selected PPK model was a one‐compartment model with first‐order absorption and elimination. It was successfully fitted using Monte Carlo Importance Sampling Expectation Maximization estimation and included separate relative bioavailability terms for the Day 1 PK data from the XanADu and XanaHES trials. The M3 method was used to permit the inclusion of the below‐the‐limit quantification concentrations in the analysis. The model estimated between‐subject variation in all 4 parameters and used a full ω block to estimate the covariance between parameters. The model included a weight effect on the apparent volume of distribution.
# [4] = tested on: healthy older participants; test: XanaMIA‐DR (ACW0005) computerized cognitive test battery (Cogstate); type: in vivo, human
# Experimental: XanaMIA‐DR (ACW0005) was a double‐blind placebo‐controlled Phase 1b trial in 107 healthy older participants (age range, 50‐80 years) at doses of 5 and 10 mg daily for 6 weeks. The principal objective of XanaMIA‐DR was to assess whether the improvements in cognition observed in XanaHES were also present at the lower doses of 5 and 10 mg daily.
# (§1) In both XanaHES and XanaMIA‐DR, cognition was assessed using a computerized CTB (Cogstate). The CTB comprised tests indexing key domains of cognition including processing speed, attention, visual learning, working memory, psychomotor function, and executive function. In XanaHES, least squares mean differences between the emestedastat 20 mg treatment group and the placebo group were estimated and tested at a 2‐sided 0.05 significance level. No adjustments for α were made for multiple comparisons. In XanaMIA‐DR, standardized effect sizes, equivalent to a Z score, were calculated with a threshold for clinically meaningful effect set at 0.9, representing a 1‐sided 80% confidence interval (CI).
# (§2) The individual tests from the Cogstate battery were combined into 2 composite scores indexing: • · “Attention Composite” of attention and working memory (Detection Test, Identification Test, One Back Test) • · “Memory Composite” of episodic memory and learning (One Card Learning Test, Continuous Paired Associate Learning Test, and Continuous Paired Associate Learning Test‐Delayed Recall).
# (§3) To compute the Attention and Memory Composite scores, each of the component‐test scores were Z transformed, the directionality of scores was reversed so that higher scores indicate better performance, and the component Z scores were averaged.
# [5] = SAD and MAD trials of up to 35 mg twice daily; cited from earlier work
# patients with AD = tested on: patients with AD; set-up: method as in PMID 34679364; conditions: 10 mg daily 12 weeks, elevated plasma pTau181; cited from earlier work
# peripheral 11β‐HSD1 = tested on: peripheral 11β‐HSD1; set-up: method as in PMID 28012176; conditions: all doses in the MAD trial (10 to 35 mg twice daily); cited from earlier work
# [6] = tested on: cognitively normal, older participants; test: XanaHES (ACW0003) computerized cognitive test battery (Cogstate); type: in vivo, human; conditions: 20 mg daily, over 12 weeks
# Experimental: The next trial, XanaHES (ACW0003) was a double‐blind, placebo‐controlled, Phase 1b trial in cognitively normal, older participants (age range, 50‐75 years) at a dose of 20 mg daily for 12 weeks. The population of 42 participants comprised 30 receiving emestedastat and 12 receiving placebo. The objectives were to assess safety, PK, HPA PD, and cognition. The computerized cognitive test battery (CTB; Cogstate) assessed attention, working memory, and episodic memory.
# as §1, §2, §3
# [7] = set-up: method as in PMID 28012176; conditions: cited from earlier work
# [8] = tested on: healthy older men; patients with type 2 diabetes mellitus; set-up: method as in PMID 15071189; conditions: cited from earlier work
structure (smiles),measurement,setting,value
O=C(c1csc(-c2cn[nH]c2)c1)N1CCC(F)(c2ccccc2Cl)CC1 [UE2316],amyloid‐β in the cortex,[1],reduction in amyloid‐β in the cortex
same,memory,[1],improved memory
same,inhibition of 11β‐HSD1 in the brain,brain 11β‐HSD1,approximately 30%
CC(C)(C(=O)NC1C2CC3CC1CC(C(N)=O)(C3)C2)N1CCN(c2ccc(C(F)(F)F)cn2)CC1 (stereo not drawn) [ABT‐384],therapeutic outcome in AD,AD population,therapeutic failure
"O=C(c1csc(-c2cn[nH]c2)c1)N1C2CCC1CC(O)(c1ncccn1)C2 (stereo not drawn) [emestedastat, (5‐(1H‐Pyrazol‐4‐yl)thiophen‐3‐yl)(3‐hydroxy‐3‐(pyrimidin‐2‐yl)‐8 azabicyclo[3.2.1]octan‐8‐yl) methanone]",occupancy in the cerebellum relative to cortex,11β‐HSD1,lower (by about half)
same,maximum tolerated dose in humans,[2]; all trials,has not been established
same,serious adverse events attributed to drug,[2]; any trial,no serious adverse events
same,linearity of PK,[3]; dose range 10‐70 mg,linear
same,"ALAG (absorption lag time), estimate",[3]; final PPK model,0.900 h
same,"ka (absorption rate), estimate",[3]; final PPK model,1.74 h⁻¹
same,"CL/F (apparent clearance), estimate","[3]; final PPK model, 138 participants",4.76 L/h
same,"WT on V/F (covariate), estimate","[3]; final PPK model, weight effect on V/F",1.00
same,Vd/F,"[3]; human, plasma, oral, final PPK model, read-out: V/F (apparent volume of distribution), estimate",64.3 L
same,half-life,"[3]; human, plasma, oral, from kel = CL/V and t1/2 = ln(2)/Kel, read-out: mean elimination half‐life (95% CI)",9.36 h
same,treatment effect in the tests making up the Memory Composite,"[4]; 5 and 10 mg daily, 6 weeks",no evidence of any treatment effect
same,improvement on the identification test (visual attention) compared to placebo,"[4]; 5‐mg treatment group, 6 weeks",−0.018 U
same,"Cohen's d, identification test","[4]; 5‐mg treatment group, vs placebo",0.32
same,maximum tolerated dose,[5],had not been established
same,tolerability,[5],well tolerated
same,"Cohen's d, AD COMposite Scores",patients with AD,< 0.2
same,"Cohen's d, ADAS‐Cog14",patients with AD,< 0.2
same,"Cohen's d, Clinical Dementia Ratio—Sum of Boxes compared to placebo",patients with AD,0.41
same,"Cohen's d, Mini‐Mental State Examination",patients with AD,< 0.2
same,"Cohen's d, Neuropsychological Test Battery‐Executive domain",patients with AD,0.26
same,inhibition of peripheral 11β‐HSD1 (suppression of urinary tetrahydrocortisol/tetrahydrocortisone ratios),peripheral 11β‐HSD1,Near complete inhibition
same,"One Card Learning Test, Continuous Paired Associate Learning Test and Delayed Recall, vs placebo",[6],no difference between groups
same,least squares mean difference on the One Back Test compared to placebo,[6],−0.06 U
same,least squares mean difference on the detection test compared to placebo,[6],−0.04 U
same,least squares mean difference on the identification test compared to placebo,[6],−0.03 U
same,"Cohen's d, One Back Test",[6]; vs placebo,0.98
same,"Cohen's d, detection test",[6]; vs placebo,0.49
same,"Cohen's d, identification test",[6]; vs placebo,0.65
same,CSF : free plasma ratio,"[7]; 4 participants, single time point",0.33
same,urinary excretion of unchanged drug,[7]; SAD and MAD trials,< 5%
CC1(C)[C@@H](OC(=O)CCC(=O)O)CC[C@]2(C)[C@H]3C(=O)C=C4[C@@H]5C[C@@](C)(C(=O)O)CC[C@]5(C)CC[C@@]4(C)[C@]3(C)CC[C@@H]12 [carbenoxolone],verbal fluency test (executive function),"[8]; 10 healthy older (55‐75 years) men, 4 weeks",improved
same,verbal memory in the Rey Auditory Verbal Learning Test,[8]; 12 patients with type 2 diabetes mellitus,improved verbal memory
